Measured values: patent publication US10308615B2, “Heterocyclic compounds as inhibitors of Vanin-1 enzyme” (Pfizer Inc., priority 2015, dated 2019)

How the values were obtained:
Assay type in all cases: biochemical
human vanin-1 [1] = biological target: T1, human vanin-1 (Homo sapiens (Human), UniProt O95497); assay: Human Vanin-1 Enzyme Assay 2; settings: 1 nM human vanin-1, 10 uM substrate, 45 min
Method: Human Vanin-1 Enzyme Assay 2.
(§1) The in vitro assay measures enzymatic cleavage of the fluorescently-labeled vanin substrate, pantetheine 7-amino-4-trifluoromethylcoumarin, by human vanin-1.
(§2) The vanin-1 protein was prepared in-house from a construct expressing the extracellular domain of human vanin-1 (GenBank ID NM_004666) preceded N-terminally by the honey bee melittin signal peptide, a GSG linker sequence, a His6X tag and a FLAG tag. The secreted, soluble enzyme was purified from the conditioned medium from a CHO cell line stably expressing the resulting protein. Enzyme purification was performed through sequential Ni NTA and size-exclusion chromatography steps.
(§3) On the day of the assay, dose response plates were prepared by diluting the inhibitors in DMSO at compound concentration 100-fold the final in-assay concentration. Concentration series were prepared by serially diluting in DMSO in a half-log series for a total of 11 data points. Intermediate compound plates containing compound in 10% DMSO were then created by diluting the compounds 10-fold in assay buffer consisting of 50 mM Tris-HCl pH=8.0, 50 mM KCl, 0.005% Brij-35 and 1.5 mM cysteamine. To begin the assay 3 μL were transferred from the intermediate compound plate to the assay plate.
A working solution of human vanin-1 was prepared by diluting the enzyme stock to 1.25 nM in assay buffer. Next, 24 μL of the vanin-1 working solution were transferred to the assay plate. The enzyme reaction was then initiated by the addition of 3 μL of 100 μM pantetheine 7-amino-4-trifluoromethylcoumarin prepared in assay buffer. The final concentrations in the assay were 1 nM human vanin-1 and 10 uM substrate. The final concentration of DMSO was 1%. The assay plates were incubated for 45 minutes and before they were read on a Spectramax M5 using a 405 nm excitation wavelength and a 505 nm emission wavelength for detection.

human vanin-1 [2] = biological target: T1, human vanin-1; assay: Human Vanin-1 Enzyme Assay 1; settings: 25 pM human vanin-1, 50 uM pantetheine 7-amino-4-trifluoromethylcoumarin, 30 min preincubation, 60 min
Method: Human Vanin-1 Enzyme Assay 1.
as §1, §2
The test inhibitors were solubilized in DMSO to a stock concentration of 30 mM. On the day of the assay, dose response plates were prepared by diluting the inhibitors in DMSO at compound concentration 200-fold the final in-assay concentration. Intermediate concentrations were prepared by diluting in DMSO in a four-fold series for a total of 11 data points.
To prepare a working solution of human vanin-1, the enzyme was diluted to 33.3 pM in the assay buffer consisting of 50 mM Tris-HCl pH=8.0, 50 mM KCl, 0.005% Brij-35 and […] cysteamine. To begin the assay 100 nL was transferred from the compound plate to the assay plate. Next, 15 μL of the vanin-1 working solution were transferred to the assay plate. The inhibitor and enzyme were incubated at room temperature for 30 minutes. The enzyme reaction was then initiated by the addition of 5 μL of 200 μM pantetheine 7-amino-4-trifluoromethylcoumarin prepared in assay buffer. The final concentrations in the assay were 25 pM human vanin-1 and 50 uM substrate. The final concentration of DMSO was 0.5%. The assay plates were incubated for 60 minutes and before they were read on a Perkin Elmer EnVision Model 2103 using a 405 nm excitation wavelength and a 510 nm emission wavelength for detection.

human vanin-1 [3] = biological target: T1, human vanin-1; assay: Human Vanin-1 Enzyme Assay 3; settings: 2 nM human vanin-1, 10 uM substrate, 15 min
Method: Human Vanin-1 Enzyme Assay 3.
as §1, §2
as §3, with “two-fold” for “half-log”
A working solution of human vanin-1 was prepared by diluting the enzyme stock to 2.5 nM in assay buffer. Next, 24 μL of the vanin-1 working solution were transferred to the assay plate. The enzyme reaction was then initiated by the addition of 3 μL of 100 μM pantetheine 7-amino-4-trifluoromethylcoumarin prepared in 5 uM acetic acid. The final concentrations in the assay were 2 nM human vanin-1 and 10 uM substrate. The final concentration of DMSO was 1%. The assay plates were incubated at room temperature for 15 minutes and before they were read on a Tecan Safire using a 405 nm excitation wavelength and a 505 nm emission wavelength for detection.

T1 sequence (O95497 22-491): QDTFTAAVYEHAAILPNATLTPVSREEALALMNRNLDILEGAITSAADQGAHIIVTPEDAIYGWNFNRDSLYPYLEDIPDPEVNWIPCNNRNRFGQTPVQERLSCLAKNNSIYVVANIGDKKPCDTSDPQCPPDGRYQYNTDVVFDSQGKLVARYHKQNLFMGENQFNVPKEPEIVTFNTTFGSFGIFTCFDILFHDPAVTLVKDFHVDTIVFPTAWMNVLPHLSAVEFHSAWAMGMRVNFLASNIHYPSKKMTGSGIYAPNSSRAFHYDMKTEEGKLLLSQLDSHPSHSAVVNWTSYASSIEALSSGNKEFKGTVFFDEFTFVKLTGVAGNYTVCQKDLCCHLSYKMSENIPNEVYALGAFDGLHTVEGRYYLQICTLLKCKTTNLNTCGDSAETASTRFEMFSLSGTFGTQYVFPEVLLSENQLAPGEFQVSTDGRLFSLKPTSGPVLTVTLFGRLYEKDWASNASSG

Row | IC50 (human vanin-1 [1]) [nM] | IC50 (human vanin-1 [2]) [nM] | IC50 (human vanin-1 [3]) [nM] | Structure (SMILES)
1 | 3.9 |  |  | CC(Nc1ncc(C(=O)c2cccc(C#N)c2)cn1)c1cccnc1 (centres unmarked) [Example 7, 3-[(2-{[1-(pyridin-3-yl)ethyl]amino}pyrimidin-5-yl)carbonyl]benzonitrile]
2 | 91.4 |  |  | CC(Nc1ncc(C(=O)c2cccc(C#N)c2)cn1)c1ccc(C(N)=O)cc1 (centres unmarked) [Example 8, 4-(1-{[5-(3-cyanobenzoyl)pyrimidin-2-yl]amino}ethyl)benzamide]
3 | 63 |  |  | CS(=O)(=O)c1cccc(C(=O)c2cnc(NCc3cccnn3)nc2)c1 [Example 21, [3-(methylsulfonyl)phenyl]{2-[(pyridazin-3-ylmethyl)amino]pyrimidin-5-yl}methanone]
4 |  | 384 | 30.1 | O=C(c1cnc(NCc2ccccn2)nc1)c1ccc(F)c(C(F)(F)F)c1 [Example 80, [4-fluoro-3-(trifluoromethyl)phenyl]{2-[(pyridin-2-ylmethyl)amino]pyrimidin-5-yl}methanone]
5 |  | 3.4 | > 16.9 | O=C(c1cnc(NCc2cccnc2)nc1)c1ccc(F)c(C(F)(F)F)c1 [Example 81, [4-fluoro-3-(trifluoromethyl)phenyl]{2-[(pyridin-3-ylmethyl)amino]pyrimidin-5-yl}methanone]
6 |  | 111 | 55.5 | O=C(c1cnc(NCc2ccncc2)nc1)c1ccc(F)c(C(F)(F)F)c1 [Example 82, [4-fluoro-3-(trifluoromethyl)phenyl]{2-[(pyridin-4-ylmethyl)amino]pyrimidin-5-yl}methanone]
7 |  | 1050 | 84.4 | O=C(c1cnc(NCc2ccccc2)nc1)c1ccc(F)c(C(F)(F)F)c1 [Example 83, [2-(benzylamino)pyrimidin-5-yl][4-fluoro-3-(trifluoromethyl)phenyl]methanone]
8 |  | 503 | 111 | N#Cc1ccc(CNc2ncc(C(=O)c3ccc(F)c(C(F)(F)F)c3)cn2)cc1 [Example 84, 4-[({5-[4-fluoro-3-(trifluoromethyl)benzoyl]pyrimidin-2-yl}amino)methyl] benzonitrile]
9 |  | 1130 | 52.8 | O=C(c1cnc(NCc2ccc(F)cc2)nc1)c1ccc(F)c(C(F)(F)F)c1 [Example 85, {2-[(4-fluorobenzyl)amino]pyrimidin-5-yl}[4-fluoro-3-(trifluoromethyl)phenyl]methanone]
10 |  | 14700 | 758 | O=C(c1cccc(Cl)c1)c1ccc(NCc2ccccc2)nn1 [Example 86, [6-(benzylamino)pyridazin-3-yl](3-chlorophenyl) methanone]
11 |  | 18600 | 9.3 | COc1ccc(CNc2ccc(C(=O)c3cccc(C(F)(F)F)c3)nn2)cc1 [Example 88, {6-[(4-methoxybenzyl)amino]pyridazin-3-yl}[3-(trifluoromethyl)phenyl]methanone]
12 |  | 1000 | 615 | O=C(O)c1ccc(CNc2ncc(C(=O)c3ccc(F)c(C(F)(F)F)c3)cn2)cc1 [Example 89, 4-[({5-[4-fluoro-3-(trifluoromethyl)benzoyl]pyrimidin-2-yl}amino)methyl] benzoic acid]
13 |  | 7430 | 86.4 | O=C(c1cccc(C(F)(F)F)c1)c1ccc(NCc2ccccc2)nn1 [Example 90, [6-(benzylamino)pyridazin-3-yl][3-(trifluoromethyl)phenyl]methanone]
14 |  | > 20000 | 566 | O=C(c1cccc(C(F)(F)F)c1)c1ccc(NCc2ccc(F)cc2F)nn1 [Example 92, {6-[(2,4-difluorobenzyl)amino]pyridazin-3-yl}[3-(trifluoromethyl)phenyl]methanone]
15 |  | 2150 | 154 | O=C(c1cnc(NCc2ccccc2)nc1)c1cc(F)cc(C(F)(F)F)c1 [Example 93, [2-(benzylamino)pyrimidin-5-yl][3-fluoro-5-(trifluoromethyl)phenyl]methanone]
16 |  | 2200 | 987 | N#Cc1ccc(CNc2ncc(C(=O)c3cc(F)cc(C(F)(F)F)c3)cn2)cc1 [Example 94, 4-[({5-[3-fluoro-5-(trifluoromethyl)benzoyl]pyrimidin-2-yl}amino)methyl] benzonitrile]
17 |  | 14.2 | 415 | CS(=O)(=O)c1cccc(C(=O)c2cnc(NCc3ccc(F)cc3)nc2)c1 [Example 96, {2-[(4-fluorobenzyl)amino]pyrimidin-5-yl}[3-(methylsulfonyl)phenyl]methanone]
18 |  | 4850 | 873 | O=C(c1cnc(NCc2ccccc2)nc1)c1ccc2c(c1)OCCO2 [Example 97, [2-(benzylamino)pyrimidin-5-yl](2,3-dihydro-1,4-benzodioxin-6-yl)methanone]
19 |  | 1680 | 537 | O=C(c1ccccc1)c1cnc(NCc2ccccc2)nc1 [Example 99, [2-(benzylamino)pyrimidin-5-yl](phenyl) methanone]
20 |  | 804 | 150 | O=C(c1ccccc1)c1cnc(NCc2ccccc2F)nc1 [Example 101, {2-[(2-fluorobenzyl)amino]pyrimidin-5-yl}(phenyl) methanone]
21 |  | 906 | 751 | NC(=O)c1ccc(CNc2ncc(C(=O)c3ccccc3)cn2)cn1 [Example 107, 5-{[(5-benzoylpyrimidin-2-yl)amino]methyl} pyridine-2-carboxamide]
22 |  | 3950 | 36.2 | O=C(c1cnc(NCc2ccc(F)cc2)nc1)c1cc(F)cc(C(F)(F)F)c1 [Example 127, {2-[(4-fluorobenzyl)amino]pyrimidin-5-yl}[3-fluoro-5-(trifluoromethyl)phenyl]methanone]
23 | 15.5 |  |  | CC(Nc1ncc(C(=O)c2cccc(C#N)c2)cn1)c1cncnc1 (centres unmarked) [Example 133, 3-[(2-{[1-(pyrimidin-5-yl)ethyl]amino}pyrimidin-5-yl)carbonyl] benzonitrile]
24 | 31.5 |  |  | O=C(c1ccc(NCc2cncnc2)nc1)c1cccc(C(F)(F)F)c1 [Example 139, {6-[(pyrimidin-5-ylmethyl)amino]pyridin-3-yl}[3-(trifluoromethyl)phenyl]methanone]
25 | 280 |  |  | O=C(c1cnc(NCc2cncnc2)nc1)c1ccnc(C(F)(F)F)c1 [Example 141, {2-[(pyrimidin-5-ylmethyl)amino]pyrimidin-5-yl}[2-(trifluoromethyl)pyridin-4-yl]methanone]
26 |  | > 20000 | > 1110 | O=C(c1cnc(OCc2ccccc2)nc1)c1cccc(C(F)(F)F)c1 [Example 155, [2-(benzyloxy)pyrimidin-5-yl][3-(trifluoromethyl)phenyl]methanone]
27 |  | > 20000 | > 1130 | O=C(c1cnc(OCc2ccc(F)cc2F)nc1)c1cccc(C(F)(F)F)c1 [Example 156, {2-[(2,4-difluorobenzyl)oxy]pyrimidin-5-yl}[3-(trifluoromethyl)phenyl]methanone]
28 |  | 11900 | 6900 | CCN1CCCC1CNc1ncc(C(=O)c2cccc(C(F)(F)F)c2)cn1 (centres unmarked) [Example 165, (2-{[(1-ethylpyrrolidin-2-yl)methyl]amino}pyrimidin-5-yl)[3-(trifluoromethyl)phenyl]methanone]
